The values below come from EP4647428A1, “COMPOUND CONTAINING 2-METHYL-2-(3-(PIPERIDIN-3-YL)PHENOXY)-2-METHYLPROPANAMIDE SKELETON” (Jiangsu Mingsheng Jutai Biotechnology Co. Ltd, priority 2023, dated 2024).

As a reminder, the Kd is the constant that tells how readily two partners part at equilibrium. In general, IC50 refers to the point on the concentration scale where inhibition reaches its midpoint. Read a high IC50 as a need for much substance.

One assay concerns the target T1, β-catenin (Homo sapiens, UniProt P35222).
T1 sequence (P35222 1-781): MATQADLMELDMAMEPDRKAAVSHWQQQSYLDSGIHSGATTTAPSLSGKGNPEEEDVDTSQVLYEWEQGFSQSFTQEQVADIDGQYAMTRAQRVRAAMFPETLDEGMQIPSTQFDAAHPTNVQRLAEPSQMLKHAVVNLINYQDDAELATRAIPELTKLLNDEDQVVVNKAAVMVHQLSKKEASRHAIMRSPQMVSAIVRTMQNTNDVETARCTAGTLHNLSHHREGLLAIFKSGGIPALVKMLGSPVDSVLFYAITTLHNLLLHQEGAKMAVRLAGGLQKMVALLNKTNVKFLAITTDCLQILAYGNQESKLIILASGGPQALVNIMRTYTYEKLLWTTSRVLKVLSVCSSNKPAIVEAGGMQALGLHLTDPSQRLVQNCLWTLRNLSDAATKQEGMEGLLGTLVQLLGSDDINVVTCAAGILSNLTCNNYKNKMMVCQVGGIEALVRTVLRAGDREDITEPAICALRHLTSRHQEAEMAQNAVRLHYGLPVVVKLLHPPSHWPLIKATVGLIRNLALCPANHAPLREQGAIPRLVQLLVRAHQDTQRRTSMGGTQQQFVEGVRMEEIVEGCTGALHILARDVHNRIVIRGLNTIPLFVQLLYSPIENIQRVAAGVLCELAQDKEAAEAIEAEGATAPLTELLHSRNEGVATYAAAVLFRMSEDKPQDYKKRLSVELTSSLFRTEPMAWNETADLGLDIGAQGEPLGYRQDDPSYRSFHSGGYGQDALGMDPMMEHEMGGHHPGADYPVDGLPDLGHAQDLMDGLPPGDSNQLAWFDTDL
As to the kind of experiment: SRP test (Biacore T200, affinity fitting KD to coupled ligand β-catenin). Type of assay: binding. As to conditions: Biacore T200, CM5 chip, 25°C, HEPES pH 7.4. The protocol: • 1. The analyte is in powder form. • 2. The temperature is 25°C. • 3. The analytical equipment used was Biacore T200 instrument.
• 1. Ligand β-catenin was diluted with HEPES (pH 7.4) to 0.5 mg/mL • 2. The analyte was dissolved in DMSO and diluted with 0.1% DMSO HEPES (pH 7.4)
3. Experimental Procedure
• 1. Start the Biacore T200 instrument according to standard operating procedures. • 2. Prepare 500 ml of HEPES buffer (pH 7.4) and deionized water (filtered through a 0.22 µm membrane) for rinsing the injection needle. • 3. Start installing the chip and install the CM5 chip according to the standard process. • 4. Prepare to start the formal experiment. The buffer solution will flush the flow system inside the entire system at a high flow rate. • 5. Choose the appropriate procedure based on the sample size. • 6. Start the capture chip. Prepare a sufficient volume of ligand β-catenin, EDC/NHS, and blocking buffer. Initiate the coupling procedure with a 7-minute coupling time and a flow rate of 10 µl/min. The final ligand coupling volume is approximately 16,000 RU. • 7. After the coupling is completed, start the sample detection and set the analyte binding time to 120 s. • The flow rate was 30 µL/min; the dissociation time was 200 s, the flow rate was 30 µL/min; the regeneration time was 30 s, • The flow rate was 30 µL/min. • 8. […]
(Surface plasmon resonance follows binding to a sensor surface in real time, without labels.)

In another assay the test system is SW480. As to the kind of experiment: CCK8 cell inhibition test on SW480 cells. It counts as cell-based. Particulars: Homo sapiens; CCK-8, SW480 cells, 24 hours incubation at 37°C, compound 20 µM to 0.15625 µM in DMEM (2% FBS). Here is the method: Cells were digested, counted, and plated in a 96-well plate (flat-bottomed, transparent) with 10,000 cells/100 µl DMEM (10% FBS) per well . • 2. Observe the cell status on the next day and start adding drugs after the cells have fully adhered to the wall; • 3. Dilute the compound in DMEM (2% FBS) in a serial dilution format to concentrations of 20 µM, 10 µM, 5 µM, 2.5 µM, 1.25 µM, 0.625 µM, 0.3125 µM, 0.15625 µM, and 0 µM (with equal volume of DMSO). • 4. Add 100 µl of the above compounds at different concentrations to each well. Repeat for each concentration gradient in duplicate. Leave three blank wells (add only DMEM 2% FBS culture medium without cells) . • 5. Incubate at 37°C for 24 hours . • 6. Add 10 µl of CCK-8 Enhanced Solution to each well. Since the amount of CCK-8 added to each well is relatively small, there may be errors due to the reagent sticking to the well wall. It is recommended to gently tap the culture plate after adding the reagent to help mix it. • 7. Incubate in the incubator for 0.5-4 hours: The amount of formazan formed varies depending on the cell type. In most cases, incubation for 1 hour is sufficient. If color development is insufficient, continue incubation to confirm optimal conditions. • 8. Measure the absorbance at 450nm and 600nm (excluding interference from the reagent background color and the absorbance of the well plate itself); • 9. The final absorbance value is OD450nm-OD600nm, and the inhibition rate is calculated; Inhibition rate = [(Ac−As)/(Ac−Ab)] × 100% [formula] • As: absorbance of the experimental well (culture medium containing cells, CCK-8, and drug to be tested); • Ac: absorbance of control wells (culture medium containing cells, CCK-8, and no test drug); • Ab: absorbance of blank wells (culture medium without cells, test drugs, or CCK-8).
(Tetrazolium dyes change colour on reduction, which living cells bring about.)

Each structure is given as a SMILES string.

In turn, `CC(C)c1ccc(-c2cccc(S(=O)(=O)N3CCCC(c4cccc(OC(C)(C)C(=O)NCC(=O)N5CCC[C@H]5CN)c4)C3)c2)cc1` (stereo partly shown) [Compound 115-010] showed a Kd on β-catenin of 284 nM. Moreover, the 50% inhibitory concentration (IC50) with SW480 stood at 3560 nM.
The matching figures for `CC(C)c1ccc(-c2cccc(S(=O)(=O)N3CCCC(c4cccc(OC(C)(C)C(=O)NCC(=O)N5CC[C@@H](CN)C5)c4)C3)c2)cc1` (stereo partly shown) [Compound 115-012]: 760 nM and < 2970 nM.
